Laboratory results published in US6291676A, “Water-soluble derivatives of camptothecin/homocamptothecin” (priority 2000, dated 2001).

What was measured:
[1] = Stability of the lactone form of CT-17 free and in liposomes in PBS, plasma, whole blood; type: physicochemical, human
Description: To determine the ability of CT-17 to be retained in liposomal preparations,the agent was loaded into liposomes using the active loading methodology as described previously (U.S. Pat. No. 5,192,549). Two types of liposomes were used: 1) non-stealth liposomes and 2) stealth liposomes. The liposome preparations were then incubated in various biological fluids to determine drug retention in the particle. In these experiments the lipid distearoylphosphatidylcholine (DSPC) was obtained from Avanti Polar Lipids (Birmingham, AL) and cholesterol was from Nutritional Biochemicals Corp., Cleveland, Ohio. […] Solvent was evaporated at 55-60° C. on rotary evaporator for 15 min to form the lipid film. The residual solvent was then removed under high vacuum at room temperature overnight. The lipid film was hydrated using 5 ml of 0.1 M ammonium sulfate. MLVs were formed by shaking and occasional vortexing at 55-60° C. LUVs were formed by passing the liposomal suspension through two 100 nm stacked polycarbonate filters under 20 psi pressure of nitrogen using 11 passes at 55-60° C. (Liposo-Fast-Pneumatic from AVESTIN, Toronto, Canada).
FIG. 7 is a graphical comparison of the stability of the lactone form of the camptothecin drug CT-17 as a function of time. […]

topoisomerase I = assay: Topoisomerase I mediated DNA cleavage (cleavable complex induction); type: biochemical
Description: Evaluation of the Relative Abilities of the Novel Polyamine Camptothecin Analogs to Induce Topoisomerase I Mediated DNA Single Strand Breaks. We have evaluated the abilities of the novel compounds of the present invention to inhibit the topoisomerase I enzyme. In these experiments the oligonucleotide was labeled at the 3'-end of the upper (scissile) strand with 32P-α-cordycepin and terminal transferase (Pommier, Y., Kohlhagen, G., Kohn, F., Leteurtre, F., Wani, M. C., and Wall, M. E. Proc. Natl. Acad. Sci. U.S.A. 92:8861-8865, 1995). Topoisomerase I (Top1) cleavage generates a 23mer that can be easily detected by electrophoresis and quantitated by Phosphorimager analysis. Tanizawa et al. (Tanizawa, A., Kohn, K. W., Kohlhagen, G., Leteurtre, F., and Pommier, Y. Biochemistry […]:7200-7206, 1995) have previously shown that camptothecin derivatives differ in the manner in which they stabilize the top1 cleavable complexes that they induce. The novel polyamine camptothecins of the present invention were compared in this assay. 0.35M NaCl was added to force top 1-mediated DNA religation and DNA cleavage was measured at various times after NaCl addition. FIG. 9 is a typical phosphoimager picture showing the timecourse of the effects of various camptothecins on the relaxation of DNA in the presence of topoisomerase I. Topoisomerase I-mediated cleavage generates DNA fragments that can be readily detected by electrophoresis and quantitated by phosphorimager analysis.
FIG. 10 is a phosphoimager picture showing the dose response of various camptothecin compounds described in the present invention on the relaxation of DNA in the presence of topoisomerase I. Topoisomerase I-mediated cleavage generates DNA fragments that can be readily detected by electrophoresis and quantitated by phosphorimager analysis as shown.
FIG. 11 contains a phosphoimager picture (bottom figure) showing the dose response effects of several of the novel polyamine camptothecins of the current invention on the relaxation of DNA in the presence of topoisomerase I. Topoisomerase I-mediated cleavage generates DNA fragments that can be readily detected by electrophoresis and quantitated by phosphorimager analysis (top figure).

In the case of `CC[C@@]1(O)C(=O)OCc2c1cc1n(c2=O)Cc2c-1nc1ccccc1c2CNN1CCN(C)CC1` [CT-17, 7-[N-(4-methyl-1-piperazino)aminomethyl]-(20S)-camptothecin], the “hydrolysis of free drug to inactive carboxylate” value [1] was “high rate and extensive amount of hydrolysis”, the “potency at promoting DNA cleavage relative to camptothecin and SN-38” value (topoisomerase I; FIG. 11 quantitation) was “somewhat less potent” and the “distribution of cleavage sites vs camptothecin or SN-38” value (topoisomerase I; topoisomerase I) was “comparable to those generated by camptothecin or 7-ethyl-10-hydroxycamptothecin (SN-38)”. The “induction of cleavable complex formation” value (topoisomerase I; topoisomerase I, 3'-32P-labeled oligonucleotide) was “capable of inducing cleavable complex formation”.
